Biological target: T1, Met kinase (Homo sapiens, UniProt P08581)
T1 construct: 6His (N); purchased Upstate 14-526; host or cells: Sf21 insect cells (S. frugiperda), baculovirus
Assay: Met kinase inhibition, enzyme assay (flashplate method)
Format: biochemical
Description: According to the manufacturer's data (Met, active, upstate, catalogue No. 14-526), Met kinase is expressed for the purposes of protein production in insect cells (Sf21; S. frugiperda) and subsequent affinity-chromatographic purification as “N-terminal 6His-tagged” recombinant human protein in a baculovirus expression vector.
The test plates used are 96-well Flashplate® microtitre plates from Perkin Elmer (Cat. No. SMP200). The components of the kinase reaction described below are pipetted into the assay plate. The Met kinase and the substrate poly Ala-Glu-Lys-Tyr, (pAGLT, 6:2:5:1), are incubated for 3 hrs at room temperature with radioactively labelled ^33P-ATP in the presence and absence of test substances in a total volume of 100 μl. The reaction is terminated using 150 μl of a 60 mM EDTA solution. After incubation for a further 30 min at room temperature, the supernatants are filtered off with suction, and the wells are washed three times with 200 μl of 0.9% NaCl solution each time. The measurement of the bound radioactivity is carried out by means of a scintillation measuring instrument (Topcount NXT, Perkin-Elmer).
The full value used is the inhibitor-free kinase reaction. This should be approximately in the range 6000-9000 cpm. The pharmacological zero value used is staurosporin in a final concentration of […]. The inhibitory values ([…]) are determined using the RS1_MTS program.
Kinase reaction conditions per well:
• 30 μl of assay buffer • 10 μl of substance to be tested in assay buffer with 10% of DMSO • 10 μl of ATP (final concentration 1 μM cold, 0.35 μCi of ^33P-ATP) • 50 μl of Met kinase/substrate mixture in assay buffer; • (10 ng of enzyme/well, 50 ng of pAGLT/well)
Solutions used: • Assay buffer:
50 mM HEPES • 3 mM magnesium chloride • 3 μM sodium orthovanadate • 3 mM manganese(II) chloride • 1 mM dithiothreitol (DTT)
pH=7.5 (to be set using sodium hydroxide) • Stop solution:
60 mM Titriplex III (EDTA) • ^33P-ATP: Perkin-Elmer; • Met kinase: Upstate, Cat. No. 14-526, Stock 1 μg/10 μl; spec. activity 954 U/mg; • Poly-Ala-Glu-Lys-Tyr, 6:2:5:1: Sigma Cat. No. P1152 In-vivo tests

T1 sequence (P08581 974-1390 limits assumed): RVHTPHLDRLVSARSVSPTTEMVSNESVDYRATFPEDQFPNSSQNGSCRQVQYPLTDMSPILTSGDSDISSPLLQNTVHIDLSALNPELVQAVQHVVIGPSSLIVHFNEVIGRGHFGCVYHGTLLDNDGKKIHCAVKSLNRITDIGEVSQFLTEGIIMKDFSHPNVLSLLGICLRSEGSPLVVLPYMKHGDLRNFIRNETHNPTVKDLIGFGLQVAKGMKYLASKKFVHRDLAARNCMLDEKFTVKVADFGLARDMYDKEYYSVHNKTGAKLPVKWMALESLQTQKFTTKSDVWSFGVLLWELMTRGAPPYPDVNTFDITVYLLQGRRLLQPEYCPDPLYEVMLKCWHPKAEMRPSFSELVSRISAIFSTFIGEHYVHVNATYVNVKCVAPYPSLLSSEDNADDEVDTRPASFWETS

Row | Structure (SMILES) | IC50
1 | CC(C)(C)OC(=O)NCCOc1cnc(-c2cccc(Cn3nc(-c4cccc(C#N)c4)ccc3=O)c2)nc1 [Compound B2, tert-butyl [2-(2-{3-[3-(3-cyanophenyl)-6-oxo-6H-pyridazin-1-ylmethyl]phenyl}-pyrimidin-5-yloxy)ethyl]carbamate] | 10 to 1000 nM
2 | Cn1cc(-c2ccc(=O)n(Cc3cccc(-c4ncc(OCCC[C@H](N)C(=O)O)cn4)c3)n2)cn1 [Compound A11, (S)-2-Amino-5-(2-{3-[3-(1-methyl-1H-pyrazol-4-yl)-6-oxo-6H-pyridazin-1-yl-methyl]phenyl}pyrimidin-5-yloxy)pentanoic acid] | 10 to 1000 nM
3 | N#Cc1cccc(-c2ccc(=O)n(Cc3cccc(-c4ncc(OCC5CCC(CN)CC5)cn4)c3)n2)c1 (centres unmarked) [Compound A13b, 3-(1-{3-[5-(4-Aminomethylcyclohexylmethoxy)pyrimidin-2-yl]benzyl}-6-oxo-1,6-dihydropyridazin-3-yl)benzonitrile] | 10 to 1000 nM
4 | Cn1cc(-c2ccc(=O)n(Cc3cccc(-c4ncc(OCCNC(=O)[C@@H]5CCCN5)cn4)c3)n2)cn1 [Compound A3] | 10 to 1000 nM
5 | N#Cc1cccc(-c2ccc(=O)n(Cc3cccc(-c4ncc(O[C@@H]5CN[C@H](C(=O)O)C5)cn4)c3)n2)c1 [Compound A10, (2S,4S)-4-(2-{3-[3-(3-cyanophenyl)-6-oxo-6H-pyridazin-1-yl-methyl]phenyl}pyrimidin-5-yloxy)pyrrolidine-2-carboxylic acid] | 10 to 1000 nM
6 | Cn1cc(-c2ccc(=O)n(Cc3cccc(-c4ncc(OCC5CCC(CN)CC5)cn4)c3)n2)cn1 (centres unmarked) [Compound A13a, 2-{3-[5-(4-aminomethylcyclohexylmethoxy)pyrimidin-2-yl]benzyl}-6-(1-methyl-1H-pyrazol-4-yl)-2H-pyridazin-3-one] | 10 to 1000 nM
7 | Cn1cc(-c2ccc(=O)n(Cc3cccc(-c4ncc(O[C@H]5CCC[C@H]5N)cn4)c3)n2)cn1 [Compound A20, 2-{3-[5-((1S,2R)-2-Aminocyclopentyloxy)pyrimidin-2-yl]benzyl}-6-(1-methyl-1H-pyrazol-4-yl)-2H-pyridazin-3-one] | 10 to 1000 nM
8 | N#Cc1cccc(-c2ccc(=O)n(Cc3cccc(-c4ncc(OCCNC(=O)[C@@H]5C[C@@H](O)CN5)cn4)c3)n2)c1 [Compound A4, N-[2-(2-{3-[3-(3-Cyanophenyl)-6-oxo-6H-pyridazin-1-ylmethyl]phenyl}-pyrimidin-5-yloxy)ethyl]-(2S,4R)-4-hydroxypyrrolidine-2-carboxamide] | 10 to 1000 nM

Further lines, results first:

Row | IC50 | Structure (SMILES)
9 | 10 to 1000 nM | N#Cc1cccc(-c2ccc(=O)n(Cc3cccc(-c4ncc(OCC5CC5CN)cn4)c3)n2)c1 (centres unmarked) [Compound A13c, 3-(1-{3-[5-(2-Aminomethylcyclopropylmethoxy)pyrimidin-2-yl]benzyl}-6-oxo-1,6-dihydropyridazin-3-yl)benzonitrile]
10 | 10 to 1000 nM | CC(=O)N[C@H](C(=O)NCCOc1cnc(-c2cccc(Cn3nc(-c4cnn(C)c4)ccc3=O)c2)nc1)C(C)C [Compound A7, (S)-2-acetylamino-3-methyl-N-[2-(2-{3-[3-(1-methyl-1H-pyrazol-4-yl)-6-oxo-6H-pyridazin-1-ylmethyl]phenyl}pyrimidin-5-yloxy)ethyl]-butyramide]
11 | 10 to 1000 nM | Cn1cc(-c2ccc(=O)n(Cc3cccc(-c4ncc(OCC5(CN)CC5)cn4)c3)n2)cn1 [Compound A14, 2-{3-[5-(1-Aminomethylcyclopropylmethoxy)pyrimidin-2-yl]benzyl}-6-(1-methyl-1H-pyrazol-4-yl)-2H-pyridazin-3-one]
12 | 10 to 1000 nM | CN(C)C[C@H]1C[C@@H]1COc1cnc(-c2cccc(Cn3nc(-c4cccc(C#N)c4)ccc3=O)c2)nc1 [Compound A17, 3-(1-{3-[5-((1S,2S)-2-Dimethylaminomethylcyclopropylmethoxy)pyrimidin-2-yl]benzyl}-6-oxo-1,6-dihydropyridazin-3-yl)benzonitrile]
13 | 10 to 1000 nM | N#Cc1cccc(-c2ccc(=O)n(Cc3cccc(-c4ncc(OCC5(CN)CC5)cn4)c3)n2)c1 [Compound A15, 3-(1-{3-[5-(1-Aminomethylcyclopropylmethoxy)pyrimidin-2-yl]benzyl}-6-oxo-1,6-dihydropyridazin-3-yl)benzonitrile]
14 | 10 to 1000 nM | CO[C@@H](C)[C@H](N)C(=O)NCCOc1cnc(-c2cccc(Cn3nc(-c4cccc(C#N)c4)ccc3=O)c2)nc1 [Compound A6, (2S,3S)-2-Amino-N-[2-(2-{3-[3-(3-cyanophenyl)-6-oxo-6H-pyridazin-1-yl-methyl]phenyl}pyrimidin-5-yloxy)ethyl]-3-methoxybutyramide]
15 | 10 to 1000 nM | CO[C@@H](C)[C@H](N)C(=O)NCCOc1cnc(-c2cccc(Cn3nc(-c4cnn(C)c4)ccc3=O)c2)nc1 [Compound A1, (2S,3S)-2-amino-3-methoxy-N-[2-(2-{3-[3-(1-methyl-1H-pyrazol-4-yl)-6-oxo-6H-pyridazin-1-ylmethyl]phenyl}pyrimidin-5-yloxy)ethyl]-butyramide]
16 | 10 to 1000 nM | N#Cc1cccc(-c2ccc(=O)n(Cc3cccc(-c4ncc(OC5CCC(O)C5)cn4)c3)n2)c1 (centres unmarked) [Compound A23, 3-(1-{3-[5-(3-Hydroxycyclopentyloxy)pyrimidin-2-yl]benzyl}-6-oxo-1,6-dihydro-pyridazin-3-yl)benzonitrile]
17 | 10 to 1000 nM | N#Cc1cccc(-c2ccc(=O)n(Cc3cccc(-c4ncc(OCCNC(=O)[C@@H]5CCCN5)cn4)c3)n2)c1 [Compound A5, N-[2-(2-{3-[3-(3-Cyanophenyl)-6-oxo-6H-pyridazin-1-ylmethyl]phenyl}-pyrimidin-5-yloxy)ethyl]-(S)-pyrrolidine-2-carboxamide]
18 | 10 to 1000 nM | Cn1cc(-c2ccc(=O)n(Cc3cccc(-c4ncc(OCCNC(=O)[C@@H]5C[C@@H](O)CN5)cn4)c3)n2)cn1 [Compound A2, N-[2-(2-{3-[3-(1-Methyl-1H-pyrazol-4-yl)-6-oxo-6H-pyridazin-1-ylmethyl]-phenyl}pyrimidin-5-yloxy)ethyl]-(2S,4R)-4-hydroxypyrrolidine-2-carboxamide]
19 | 10 to 1000 nM | CN(C)CC1CCC(COc2cnc(-c3cccc(Cn4nc(-c5cnn(C)c5)ccc4=O)c3)nc2)CC1 (centres unmarked) [Compound A13, 2-{3-[5-(4-dimethylaminomethylcyclohexylmethoxy)pyrimidin-2-yl]benzyl}-6-(1-methyl-1H-pyrazol-4-yl)-2H-pyridazin-3-one]
20 | 10 to 1000 nM | CC(=O)N[C@H](C(=O)NCCOc1cnc(-c2cccc(Cn3nc(-c4cccc(C#N)c4)ccc3=O)c2)nc1)C(C)C [Compound A8, (S)-2-acetylamino-N-[2-(2-{3-[3-(3-cyanophenyl)-6-oxo-6H-pyridazin-1-yl-methyl]phenyl}pyrimidin-5-yloxy)ethyl]-3-methylbutyramide]
21 | 10 to 1000 nM | N#Cc1cccc(-c2ccc(=O)n(Cc3cccc(-c4ncc(O[C@H]5CCC[C@H]5N)cn4)c3)n2)c1 [Compound A19, 3-(1-{3-[5-((1S,2R)-2-Aminocyclopentyloxy)pyrimidin-2-yl]benzyl}-6-oxo-1,6-dihydropyridazin-3-yl)benzonitrile]
22 | 10 to 1000 nM | N#Cc1cccc(-c2ccc(=O)n(Cc3cccc(-c4ncc(OCC5CCN(CC6CC6)CC5)cn4)c3)n2)c1 [Compound A24, 3-(1-{3-[5-(1-cyclopropylmethylpiperidin-4-ylmethoxy)-pyrimidin-2-yl]benzyl}-6-oxo-1,6-dihydropyridazin-3-yl)benzonitrile]

Tested on: not given
Assay: not given

Row | melting point | Structure (SMILES)
23 | 149 to 150 °C | N#Cc1cccc(-c2ccc(=O)n(Cc3cccc(-c4ncc(OCCN5CCNCC5)cn4)c3)n2)c1 [Compound C5, 3-(6-oxo-1-{3-[5-(2-piperazin-1-ylethoxy)pyrimidin-2-yl]benzyl}-1,6-dihydro-pyridazin-3-yl)benzonitrile]
24 | 200 to 201 °C | CC(C)Oc1cnc(-c2cccc(Cn3nc(-c4cccc(C#N)c4)ccc3=O)c2)nc1 [Compound D2, 3-{1-[3-(5-Isopropoxypyrimidin-2-yl)benzyl]-6-oxo-1,6-dihydropyridazin-3-yl}benzonitrile]
25 | 229 to 230 °C | COc1cnc(-c2cccc(Cn3nc(-c4cccc(C#N)c4)ccc3=O)c2)nc1 [Compound D3, 3-{1-[3-(5-Methoxypyrimidin-2-yl)benzyl]-6-oxo-1,6-dihydropyridazin-3-yl}-benzonitrile]
26 | 197 to 198 °C | CC(C)(C)OC(=O)N1CCC(COc2cnc(-c3cccc(Cn4nc(-c5cccc(C(N)=O)c5)ccc4=O)c3)nc2)CC1 [Compound C18, tert-butyl 4-(2-{3-[3-(3-carbamoylphenyl)-6-oxo-6H-pyridazin-1-ylmethyl]-phenyl}pyrimidin-5-yloxymethyl)piperidine-1-carboxylate]
